Drawing on ChEMBL document CHEMBL3091329, “Discovery of tetrahydroisoquinoline-based CXCR4 antagonists” (ACS Med Chem Lett, 2013), this text covers inhibition for one compound.

In the assay the target is T1, C-C chemokine receptor type 3 (Homo sapiens) (UniProt P51677).
T1 sequence (whole entry): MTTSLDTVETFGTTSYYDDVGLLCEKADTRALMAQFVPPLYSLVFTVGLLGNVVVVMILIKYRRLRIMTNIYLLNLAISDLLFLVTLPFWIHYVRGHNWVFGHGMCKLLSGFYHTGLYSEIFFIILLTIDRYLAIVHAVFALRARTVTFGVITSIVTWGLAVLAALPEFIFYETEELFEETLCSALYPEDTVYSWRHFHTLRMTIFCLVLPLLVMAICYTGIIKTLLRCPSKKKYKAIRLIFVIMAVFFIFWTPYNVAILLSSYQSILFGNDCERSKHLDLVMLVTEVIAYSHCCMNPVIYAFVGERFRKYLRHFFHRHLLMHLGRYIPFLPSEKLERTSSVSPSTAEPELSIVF
Kind of assay: Inhibition of CCR3 (unknown origin) at 10 uM relative to control.

Broadly, the inhibition is the relative decrease from the control value, in per cent. `NCCCCN(C[C@H]1Cc2ccccc2CN1)[C@H]1CCCc2cccnc21` returned an inhibition below 10%.
